pEC50: −log10 of the molar value.
Key:
[1] = system: Gli-1; experiment: Medulloblastoma model: Gli-1 mRNA expression in subcutaneously implanted tumors; assay type: in vivo, mouse; settings: single oral dose, 8 hours post dose
Protocol: (§1) The activity of Compound 42 was also evaluated in a transgenic mouse model of medulloblastoma. Mice that are heterozygous for loss of function mutations in the tumor suppressors Patched1 (Ptch1) and Hypermethylated in Cancer (Hic1) develop spontaneous medulloblastoma. […] When passaged as subcutaneous allografts, these tumors grow aggressively and are Hedgehog pathway-dependent. This model was employed to evaluate the efficacy of orally administered Compound, and to correlate activity with drug exposure in plasma and tumors.

[2] = system: RL; experiment: NHL colony formation in methylcellulose, RL; assay type: cell-based, human; settings: 1.0 um, 72 hours
Protocol: (§2) The ability of Compound 42 to inhibit the in vitro growth of human cell lines derived from patients with non-Hodgkin's lymphoma (cell lines RL and Jeko-1) and Hodgkin's disease (cell line L428) was studied. Each of the cell lines was treated for 72 hours with Compound 42 (1.0 um) followed by plating in methylcellulose.

[3] = system: primary clinical bone marrow specimens derived from patients with MM; experiment: Multiple myeloma colony growth in methylcellulose, primary clinical specimens; assay type: cell-based, human; settings: primary clinical MM samples, treated 96 hours, colonies quantified 10-21 days later
Protocol: (§3) The ability of Compound 42 to inhibit the growth of multiple myeloma cells (MM) in vitro was tested, using human multiple myeloma cells lines (NCI-H929 and KMS12) and primary clinical bone marrow specimens derived from patients with MM. The cells were treated for 96 hours with Compound, washed, then plated in methylcellulose. Tumor colonies were quantified 10-21 days later as an indicator of cell growth potential following treatment.

[4] = system: Hedgehog pathway; experiment: C3H10T1/2 osteoblast differentiation assay (alkaline phosphatase readout); assay type: cell-based, Mouse; settings: Mus musculus, C3H 10T1/2; C3H10T1/2 cells, sonic Hedgehog 250 ng/ml, AP activity normalized to total protein; read-out: Differentiation Assay EC50 (approximate EC50 for inhibition)
Text: Hedgehog pathway specific cancer cell killing effects may be ascertained using the following assay. C3H10T1/2 cells differentiate into osteoblasts when contacted with the sonic hedgehog peptide (Shh-N). Upon differentiation; these osteoblasts produce high levels of alkaline phosphatase (AP) which can be measured in an enzymatic assay (Nakamura et al., X BBRC (1997) 237:465). Compounds that block the differentiation of C3H10T1/2 into osteoblasts (a Shh dependent event) can therefore be identified by a reduction in AP production (van der Horst et al., Bone (2003) 33:899). The assay details are described below. The results approximate (EC50 for inhibition) of the differentiation assay is shown below in Table 1.
Mouse embryonic mesoderm fibroblasts C3H10T1/2 cells (obtained from ATCC) were cultured in Basal MEM Media (Gibco/Invitrogen) supplemented with 10% heat inactivated FBS (Hyclone), 50 units/ml penicillin and 50 ug/ml streptomycin (Gibco/Invitrogen) at 37° C. With 5% CO2 in air atmosphere.
C3H10T1/2 cells were plated in 96 wells with a density of 8×10^3 cells/well. Cells were grown to confluence (72 hrs). After sonic Hedgehog (250 ng/ml), and/or compound treatment, the cells were lysed in 110 μL of lysis buffer (50 mm Tris ph 7.4, 0.1% tritonx100), plates were sonicated and lysates spun through 0.2 μm PVDF plates (Corning). 40 μL of lysates was assayed for AP activity in alkaline buffer solution (Sigma) containing 1 mg/ml p-Nitrophenyl Phosphate. After incubating for 30 min at 37° C., the plates were read on an Envision plate reader at 405 nm. Total protein was quantified with a BCA protein assay kit from Pierce according to manufacturer's instructions. AP activity was normalized against total protein.

[5] = system: Gli-responsive luciferase reporter; experiment: Gli-responsive luciferase reporter transient transfection assay, REH; assay type: cell-based; settings: 1 um, vehicle alone 6.73
Text: The activity of Compound 42 (1 um) against three pre-B cell acute lymphocytic leukemia cell lines (REH, RS4-11, and Nalm-6) was studied, using a transient transfection assay in which a Gli-responsive luciferase reporter was transiently transfected into cells. Treatment with Compound 42 repressed luciferase activity compared to a vehicle treated control (Table 4).

[6] = system: LX22 cells; experiment: Lung cancer model: LX22 primary SCLC xenograft; assay type: in vivo, human
Text: To test the activity of Compound 42 in a human SCLC tumor model, LX22 cells were implanted subcutaneously into the flank of the right leg. LX22 is primary xenograft model of SCLC derived from chemo-naive patients, which has been maintained by mouse to mouse passaging. This tumor responds to etoposide/carboplatin chemotherapy in way that closely resembles a clinical setting. LX22 regresses during chemotherapy treatment, goes through a period of remission, and then begins to recur. In the LX22 model, Compound single agent activity and its ability to modulate the chemoresistant recurrence was tested. On day 32 post tumor implant, mice were randomized into three dosing groups to receive Vehicle (30% HBPCD), Compound, or the chemotherapy combination of etoposide and carboplatin (E/P). […] Etoposide was administered i.v at 12 mg/kg on days 34, 35, 36, and 48, while Carboplatin was administered i.v. At 60 mg/kg on days 34, 41, and 48, post tumor implant. On day 50, the E/P treated mice were further randomized to receive either Vehicle (30% HPBCD) or Compound follow up treatment.

[7] = system: KMS12; experiment: Multiple myeloma colony growth in methylcellulose, KMS12; assay type: cell-based, human; settings: KMS12, treated 96 hours, colonies quantified 10-21 days later
Protocol: as §3

[8] = system: U937; experiment: AML colony formation in methylcellulose, U937; assay type: cell-based, human; settings: 1.0 um, 72 hours
Protocol: (§4) The ability of Compound 42 to inhibit the in vitro growth of human cell lines derived from patients with acute myeloid leukemia (AML, cell line U937) and myelodysplastic syndrome (MDS, cell line KG1 and KG1a) was studied. Each of the cell lines was treated for 72 hours with Compound 42 (1.0 um) followed by plating in methylcellulose.

[9] = system: KG1a; experiment: MDS colony formation in methylcellulose, KG1a; assay type: cell-based, human; settings: 1.0 um, 72 hours
Protocol: as §4

[10] = system: medulloblastoma; experiment: Medulloblastoma model: Ptch1/Hic1 subcutaneous allografts, tumor growth; assay type: in vivo, mouse
Protocol: as §1
The approximate effective daily oral dose for 50% inhibition of tumor growth (ED50) is 4 mg/kg.

[11] = system: NCI-H929; experiment: Multiple myeloma colony growth in methylcellulose, NCI-H929; assay type: cell-based, human; settings: NCI-H929, treated 96 hours, colonies quantified 10-21 days later
Protocol: as §3

[12] = system: Jeko-1; experiment: NHL colony formation in methylcellulose, Jeko-1; assay type: cell-based, human; settings: Jeko-1 (NHL), 1.0 um, 72 hours
Protocol: as §2

[13] = system: KG1; experiment: MDS colony formation in methylcellulose, KG1; assay type: cell-based, human; settings: 1.0 um, 72 hours
Protocol: as §4

[14] = Oral multi-dose MTD; settings: mouse, in vivo, mice

CC1=C2C[C@H]3[C@@H](CC[C@@H]4C[C@H](NS(C)(=O)=O)CC[C@@]43C)[C@@H]2CC[C@@]2(C1)O[C@@H]1C[C@H](C)CN[C@H]1[C@H]2C [Compound 42]
HH pathway down-regulation measured by Gli-1 mRNA expression [1]: dose-dependent down-regulation | % colony formation with Compound 42 (relative to vehicle control) [2]: 14.3% | growth of cells relative to untreated control (100%) [3]: less than 25% | pEC50 [4]: > 7.70 | Relative luc activity (+Compound) [5]: 1.12 | tumor recurrence after etoposide/carboplatin (E/P), treated vs vehicle group ([6]; follow up treatment from day 50, 40 mg/kg/day orally, 35 consecutive doses, p=0.0101): substantial delay in tumor recurrence | single agent activity, treated vs vehicle groups ([6]; orally 40 mg/kg/day, 16 consecutive doses): no measurable difference | growth of cells relative to untreated control (100%) [7]: less than 25% | % colony formation with Compound 42 (relative to vehicle control) [8]: 43.4% | % colony formation with Compound 42 (relative to vehicle control) [9]: 34.6% | ED50 ([10]; Mus musculus, daily oral dosing, approximate, read-out: effective daily oral dose for 50% inhibition of tumor growth (ED50)): ~4 mg/kg | inhibition of tumor growth ([10]; daily (QD) PO administration): dose dependent inhibition of tumor growth, with frank tumor regression seen at higher doses | long term survival following cessation of treatment ([10]; treated QD for 21 days): > 60 days | tumor re-growth following cessation of treatment ([10]; treated QD for 21 days): little to no tumor re-growth | growth of cells relative to untreated control (100%) [11]: less than 25% | % colony formation with Compound 42 (relative to vehicle control) [12]: 27.4% | % colony formation with Compound 42 (relative to vehicle control) [13]: 25.1% | MTD [14]: 40 mg/kg/day
